Tests used:
[1] = target: T1, Alpha-2C adrenergic receptor (Homo sapiens, UniProt P18825)
T1 sequence (P18825 whole entry): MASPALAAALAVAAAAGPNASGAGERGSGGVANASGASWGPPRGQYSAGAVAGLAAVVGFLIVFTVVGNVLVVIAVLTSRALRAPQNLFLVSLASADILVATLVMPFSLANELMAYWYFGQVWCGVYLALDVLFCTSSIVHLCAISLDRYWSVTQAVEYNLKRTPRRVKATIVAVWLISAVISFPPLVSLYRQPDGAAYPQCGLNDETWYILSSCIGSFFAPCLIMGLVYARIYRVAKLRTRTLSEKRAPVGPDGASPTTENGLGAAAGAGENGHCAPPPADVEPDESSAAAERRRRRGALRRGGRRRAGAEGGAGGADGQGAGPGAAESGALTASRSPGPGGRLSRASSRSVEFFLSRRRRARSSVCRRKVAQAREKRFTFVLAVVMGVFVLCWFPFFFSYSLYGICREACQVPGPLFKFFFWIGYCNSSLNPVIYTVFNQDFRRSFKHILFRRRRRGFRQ

[2] = target: T2, Alpha-2A adrenergic receptor (Homo sapiens, UniProt P08913)
T2 sequence (P08913 whole entry): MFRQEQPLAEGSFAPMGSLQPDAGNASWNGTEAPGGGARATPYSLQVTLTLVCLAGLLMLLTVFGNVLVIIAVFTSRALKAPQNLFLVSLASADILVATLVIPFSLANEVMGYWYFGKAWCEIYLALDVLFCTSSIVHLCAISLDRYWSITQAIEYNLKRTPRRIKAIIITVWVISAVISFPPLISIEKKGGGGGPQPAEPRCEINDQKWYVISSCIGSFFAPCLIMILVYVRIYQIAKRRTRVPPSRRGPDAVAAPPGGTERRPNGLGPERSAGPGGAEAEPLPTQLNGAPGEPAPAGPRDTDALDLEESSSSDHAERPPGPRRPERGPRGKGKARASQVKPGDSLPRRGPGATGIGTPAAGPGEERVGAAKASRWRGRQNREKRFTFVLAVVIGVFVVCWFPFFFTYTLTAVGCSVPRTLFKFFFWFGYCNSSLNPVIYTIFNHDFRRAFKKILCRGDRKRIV

| SMILES | Ki [1] [nM] | Ki [2] [nM] |
| --- | --- | --- |
| COc1cc(N)c(Cl)cc1C(=O)NC1CC2CCC(C1)N2C (centres undefined) [4-amino-5-chloro-2-methoxy-N-(8-methyl-8-azabicyclo[3.2.1]octan-3-yl)benzamide] | 150 |  |
| O=C1NCN(c2ccccc2)C12CCN(CC1COc3ccccc3O1)CC2 (centres undefined) [8-(2,3-Dihydro-benzo[1,4]dioxin-2-ylmethyl)-1-phenyl-1,3,8-triaza-spiro[4.5]decan-4-one] | 1.04 | 54.3 |
| COc1ccccc1N1CCN(CCC2C(=O)c3ccccc3C(C)(C)C2=O)CC1 (centres undefined) [NSC_122211] | 31.8 |  |
| COc1cccc(OC)c1OCCNCC1Oc2ccccc2OC1c1ccccc1 (centres undefined) [NSC_185453] | 3.18 | 14.6 |
| COC1(C2=NCCN2)COc2ccccc2O1 (centres undefined) [RX821002] | 1.78 | 0.62 |
| CC1c2ccccc2CN1CC1=NCCN1 (centres undefined) [NSC_121850] |  | 5.68 |
